Assay results reported in patent US5698575A, “Chromone compounds, pharmaceutical compositions containing the same, and use of the same” (Kureha Chemical Industry Co., Ltd., priority 1995, dated 1997).

Columns and labels:
Wistar rat = experiment: Acute toxicity of chromone derivative, oral, rats; format: in vivo; details: male rats, 500 mg/kg orally
Method: (§1) The acute toxicity of the chromone derivative of the present invention was evaluated, for Crj:CD-1(ICR) mice (male; 6 weeks old) and Wistar rat (male; 6 weeks old). […] In the experiments as above, two animals were used for each group.

Crj:CD-1(ICR) mice = experiment: Acute toxicity of chromone derivative, oral, mice; format: in vivo, mouse; details: male mice, 500 mg/kg orally
Method: as §1

[1] = system: Mouse melanoma (B16-BL6) cells; experiment: Antitumor activity to mouse melanoma-cells-implanted mouse; format: in vivo; details: 100 mg/kg orally once a day for 13 days, C57BL/6N mice
Method: Mouse melanoma (B16-BL6) cells were subcutaneously implanted in the amount 1×10^6 cells in C57BL/6N mice (6 weeks old, male) at the axillary fossa. From the day after the implantation, 2-pyrrolylthiochromone was orally administered once a day for 13 days. The composition to be administered was preparedby dissolving 2-pyrrolylthiochromone powder in sesame oil, and administered at the dose of 100 mg of the compound per 1 kg of the mouse body weight. The amount of sesame oil administered was 10 ml/kg of the mouse body weight. To the control group, only sesame oil was administered. At the next day of the last administration day, the mice were sacrificed, and the weight of the tumor was measured. For the control group where the present compound was not administered, five mice were used, whereas 6 mice were used for the group where the present compound was administered.

## COc1cc(OC)c2c(=O)cc(-n3cnc4ccccc43)oc2c1 [2-benzimidazolyl-5,7-dimethoxychromone]
Wistar rat; observed for 7 days
  change in general state and body weight in comparison with the control group: no change was observed
Wistar rat; observed for seven days
  remarkable toxicity: no remarkable toxicity
Crj:CD-1(ICR) mice; observed for 7 days
  change in general state and body weight in comparison with the control group: no change was observed
Crj:CD-1(ICR) mice; observed for seven days
  remarkable toxicity: no remarkable toxicity

## O=c1cc(-n2cccc2)sc2ccccc12 [2-pyrrolylthiochromone]
[1]
  decrease in the body weight due to the administration: not observed
[1]; B16-BL6 subcutaneous, FIG. 3
  inhibitory activity for the tumor growth (tumor weight) in comparison with the control group: 36.7%
